Laboratory results from publication PMC12209990, “Effect of Cytochrome P450 3A Inhibition and Induction by Itraconazole and Rifampin on Tazemetostat Pharmacokinetics in Patients With Advanced Malignancies” (Clinical Pharmacology in Drug Development, 2025).

Tests used:
[1] = Safety (TEAEs) Part 1: tazemetostat coadministered with itraconazole; details: human, in vivo
Experimental: Part 1 of the study evaluated the DDI between tazemetostat and itraconazole. On the mornings of Days 1 and 15, patients received a single dose of tazemetostat 400 mg orally. On Days 3‐14, patients received tazemetostat 400 mg twice daily (morning and evening). On Days 18‐20, patients received itraconazole 200 mg orally once daily in the morning. On Days 21‐35, tazemetostat 400 mg twice daily was coadministered in the morning with a single dose of itraconazole 200 mg. On Day 36, patients received a single dose of tazemetostat 400 mg coadministered in the morning with a single dose of itraconazole 200 mg. On Days 37 and 38, patients received a single dose of itraconazole 200 mg (Figure 1A). Throughout Part 1, administration of itraconazole occurred 1 hour after a meal.
(§1) Safety was assessed by monitoring treatment‐emergent adverse events (TEAEs) and vital signs, electrocardiography, and clinical laboratory tests. TEAEs were defined as adverse events that started or worsened in severity on or after the date of the first dose of the study drug through 30 days after the last dose. Treatment‐related TEAEs were summarized by each study drug for both study parts. Adverse events were coded using the Medical Dictionary for Regulatory Activities Version 23.1 and graded per Common Terminology Criteria for Adverse Events Version 5.0.

[2] = Safety (TEAEs) Part 2: tazemetostat coadministered with rifampin; details: human, in vivo
Experimental: Part 2 of the study evaluated the DDI between tazemetostat and rifampin. On the mornings of Days 1 and 15, patients received a single dose of tazemetostat 800 mg orally. On Days 3‐14, patients received tazemetostat 800 mg twice daily. On Days 17‐23, patients received tazemetostat 800 mg twice daily, coadministered in the morning with a single dose of rifampin 600 mg orally. On the morning of Day 24, patients received a single dose of tazemetostat 800 mg coadministered with rifampin 600 mg. On the morning of Day 25, patients received rifampin 600 mg (Figure 1B). Throughout Part 2, administration of rifampin occurred 1 hour before a meal.
as §1

Row | Compound | Treatment-related TEAE Grade 3 or 4, related to the named study drug, patients [1] | Treatment-related TEAEs, related to the named study drug, patients [1] | Treatment-related TESAE, related to the named study drug, patients [1] | Treatment-related TEAE Grade 3 or 4, related to the named study drug, patients [2] | Treatment-related TEAEs, related to the named study drug, patients [2] | Treatment-related TESAE, related to the named study drug, patients [2]
1 | CCC(C)n1ncn(-c2ccc(N3CCN(c4ccc(OCC5COC(Cn6cncn6)(c6ccc(Cl)cc6Cl)O5)cc4)CC3)cc2)c1=O (stereo not drawn) [Itraconazole] | 1 (4.8) n (%) | 8 (38.1) n (%) | 0 n (%) | – | – | –
2 | CO[C@H]1/C=C/O[C@@]2(C)Oc3c(C)c(O)c4c(O)c(c(/C=N/N5CCN(C)CC5)c(O)c4c3C2=O)NC(=O)/C(C)=C\C=C\[C@H](C)[C@H](O)[C@@H](C)[C@@H](O)[C@@H](C)[C@H](OC(C)=O)[C@@H]1C [Rifampin] | – | – | – | 1 (4.8) n (%) | 8 (38.1) n (%) | 0 n (%)
